Assay results reported in ChEMBL document CHEMBL3585312, “Anti-MRSA activity of isoplagiochin-type macrocyclic bis(bibenzyl)s is mediated through cell membrane damage” (2015).
Values after ≈ are worked out from the molar mass of the structure shown. Active and inactive are the calls of the source. No cut-off for these calls is given here.

How the values were obtained:
Assay type in all cases: functional
Staphylococcus aureus [1] = experiment: Induction of methicillin-resistant Staphylococcus aureus N315 membrane damage assessed as decrease in K+ concentration at 10 ug/ml after 90 mins by coupled plasma optical emission spectrometry
Staphylococcus aureus [2] = experiment: Induction of methicillin-resistant Staphylococcus aureus N315 membrane damage using ethidium bromide assessed as fluorescence intensity at 100 ug/ml by ethidium bromide outflow assay
Staphylococcus aureus [3] = experiment: Induction of methicillin-resistant Staphylococcus aureus N315 membrane damage assessed as increase in Na+ concentration at 10 ug/ml after 90 mins by coupled plasma optical emission spectrometry
Staphylococcus aureus [4] = experiment: Induction of methicillin-resistant Staphylococcus aureus N315 membrane damage using ethidium bromide assessed as fluorescence intensity at 100 ug/ml by ethidium bromide inflow assay
Staphylococcus aureus [5] = experiment: Antimicrobial activity against methicillin-resistant Staphylococcus aureus N315 after 24 hrs by broth microdilution method; conditions: N315, 24 h
Staphylococcus aureus [6] = experiment: Induction of methicillin-resistant Staphylococcus aureus N315 membrane damage using ethidium bromide assessed as fluorescence intensity at 10 ug/ml by ethidium bromide outflow assay
Staphylococcus aureus [7] = experiment: Induction of methicillin-resistant Staphylococcus aureus N315 membrane damage using ethidium bromide assessed as fluorescence intensity at 10 ug/ml by ethidium bromide inflow assay

Compound | Activity (Staphylococcus aureus [1]) | Activity (Staphylococcus aureus [2]) | Activity (Staphylococcus aureus [3]) | Activity (Staphylococcus aureus [4]) | MIC (Staphylococcus aureus [5]) [mg/L] | Activity (Staphylococcus aureus [6]) | Activity (Staphylococcus aureus [7])
Oc1ccc2c(c1)CCc1ccc(cc1)-c1cccc(c1)CCc1ccc-2c(O)c1 | inactive | inactive | inactive | inactive | – | – | –
Oc1ccc2c(c1)CCc1ccccc1-c1cccc(c1)CCc1ccc-2c(O)c1 | – | – | – | – | 2 (≈ 5.1 µM) | – | –
Oc1ccc2c(c1)CCc1cccc(c1)-c1cccc(c1)CCc1ccc-2c(O)c1 | Active | – | Active | – | 0.5 (≈ 1.27 µM) | Active | Active
Oc1ccc2c(c1)CCc1ccc(cc1)Oc1cccc(c1)CCc1ccc-2c(O)c1 | – | – | – | – | – | Active | Active
